Experimental data published in BindingDB's records for doi:10.7270/Q2VQ314Z (Burnham Center For Chemical Genomics, 2010).

Biological target: T1, Tyrosine-protein phosphatase non-receptor type 7 (Homo sapiens, UniProt P35236)
T1 sequence (P35236 whole entry): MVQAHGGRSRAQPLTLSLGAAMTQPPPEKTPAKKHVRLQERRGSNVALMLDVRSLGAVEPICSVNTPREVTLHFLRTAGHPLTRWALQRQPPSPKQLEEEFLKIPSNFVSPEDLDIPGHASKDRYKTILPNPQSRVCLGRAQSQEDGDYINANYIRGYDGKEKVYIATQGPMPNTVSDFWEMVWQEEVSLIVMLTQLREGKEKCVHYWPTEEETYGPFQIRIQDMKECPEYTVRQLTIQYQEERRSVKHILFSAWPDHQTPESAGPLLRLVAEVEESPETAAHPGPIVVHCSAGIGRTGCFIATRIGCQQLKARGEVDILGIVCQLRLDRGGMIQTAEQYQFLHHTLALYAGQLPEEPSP
Assay: HePTP phosphatase inhibitors, dose response, biochemical, fluorescence, OMFP substrate, HTS hits, set 2 (AID 435032)

IC50	SMILES
7.33 µM	N=C(NN=Cc1ccc2c(c1)OCO2)Sc1cc(O)n(-c2ccc(C(=O)O)cc2)c1O [4-(3-{[[(2E)-2-(1,3-benzodioxol-5-ylmethylene)hydrazino](imino)methyl]thio}-2,5-dioxopyrrolidin-1-yl)benzoic acid]
> 79.4 µM	Cc1ccc(NN=C2C(=O)N(CN3CCOCC3)c3ccccc32)cc1 [(3Z)-3-[(4-methylphenyl)hydrazinylidene]-1-(4-morpholinylmethyl)-2-indolone]
> 79.4 µM	O=C1C([N+](=O)[O-])=CC(Br)=CC1/C=N/n1cnnc1 (stereo not given) [MLS000714804]
14.9 µM	COC1=CC=CC(/C=N/NC(=O)c2cc3cc([N+](=O)[O-])ccc3s2)C1=O (stereo not given) [SMR000237814]
> 79.4 µM	CCOC(=O)NC(=O)C(C=Nc1ccc(C)cc1)C(=O)NC(=O)OCC [ethyl 2-{[(ethoxycarbonyl)amino]carbonyl}-3-(4-toluidino)acryloylcarbamate]
